# Measured values: patent publication US20250115865A1, “MAMMALIAN SPERM PREPARATION METHOD, ARTIFICIAL INSEMINATION METHOD, IN-VITRO FERTILIZATION METHOD, AND MEDIUM” (Hiroshima University, priority 2022, published 2025)
# How the values were obtained:
# bovine sperm [1] = assay: Bovine in vitro fertilization with upper-layer sperm, sex identification of blastocyst embryos by real-time PCR; assay type: cell-based; conditions: modified HTF medium pH 7.4, R848 3 nM, 30 minutes room temperature, FIG. 9
# Method: Freeze-thawed bovine sperm, thawed and washed in modified HTF medium, were cultured in modified HTF medium (pH 7.4, supplemented with R848 (3 nM)) (30 minutes, room temperature). Centrifugation was carried out, and then the supernatant was discarded. Subsequently, the sperm were resuspended in modified HTF medium supplemented with 1% PVP and R848 (3 nM), and then placed under PVP-free modified HTF medium to form a lower layer. Fifteen minutes later, 1.5 mL of the upper layer was collected, washed, and then subjected to in vitro fertilization. Thereafter, the resulting blastocyst embryos were subjected to sex identification by real-time PCR.
# bovine sperm [2] = assay: X-sperm/Y-sperm ratio of bovine lower-layer sperm by fluorescence in situ hybridization; assay type: cell-based; conditions: freeze-thawed bovine sperm, Glu medium pH 7.7, R848 3 nM, swim-up, FISH, FIG. 8
# pig sperm = assay: Pig artificial insemination with treated semen, sex of offspring; assay type: in vivo; conditions: semen treated in modified HTF medium pH 7.8, R848 3 nM, 60 minutes, 37° C.
# Method: Pig semen diluted to 5 billion/100 mL with Hiro Swine B solution was centrifuged (500 G, 5 minutes, room temperature), and then the supernatant was discarded. The pig sperm were suspended in the same amount of modified HTF medium (pH 7.8, supplemented with R848 (3 nM)), and then cultured in a thermostat (60 minutes, 37° C.). Thereafter, centrifugation (500 G, 5 minutes, room temperature) was carried out, and the supernatant was discarded. Subsequently, the sperm were suspended in a diluent for artificial insemination, and then subjected to artificial insemination.
# mouse sperm [3] = assay: Mouse in vitro fertilization with treated sperm, sex of blastocyst embryos by real-time PCR; assay type: cell-based; conditions: sperm treated with R848 3 nM
# Method: Sperm were collected from the cauda epididymis of 12-week-old mature male mice. The mouse sperm were cultured in modified HTF medium (Glu medium, pH 7.8, supplemented with R848 (3 nM)) (60 minutes, 37° C.). In vitro fertilization was performed using sperm cultured in the same manner as in Experiment 7. Five days later, sperm that reached blastocyst embryos were collected, and the ratio between X-sperm and Y-sperm was calculated by real-time PCR.
# bovine sperm [4] = assay: Acrosome retention rate of bovine sperm after culture and swim-up; assay type: cell-based; conditions: freeze-thawed bovine sperm, Glu medium pH 7.7, R848 3 nM, 30 minutes room temperature, swim-up from 1% PVP 15 minutes; FIG. 7
# Method: Freeze-thawed bovine sperm, thawed and washed in modified HTF medium, were cultured in modified HTF medium (Glu medium, pH 7.7, supplemented with R848 (3 nM)) (30 minutes, room temperature). Centrifugation was carried out, and then the supernatant was discarded. Subsequently, the sperm were resuspended in modified HTF medium supplemented with 1% PVP and R848 (3 nM), and then placed under PVP-free modified HTF medium to form a lower layer. Fifteen minutes later, 1.5 mL of the upper layer and 0.5 mL of the lower layer were collected. Each layer was subjected to acrosome staining, and the acrosome retention rate was determined.
# mouse sperm [5] = assay: Mouse artificial insemination with treated sperm, sex of blastocyst embryos; assay type: in vivo; conditions: sperm treated with R848 3 nM, Glu medium pH 7.8, 60 minutes, 5/6 embryos
# Method: Sperm were collected from the cauda epididymis of 12-week-old mature male mice. The mouse sperm were cultured in modified HTF medium (Glu medium, pH 7.8, supplemented with R848 (3 nM)) (60 minutes, 37° C.). Sperm cultured in the same manner as in Experiment 7 were subjected to artificial insemination, and the resulting blastocyst embryos were collected. As a result, 83.3% (5/6) of the embryos were female embryos.
# [6] = blastocyst embryos after five days, Glu medium pH 7.8, 22 individuals
structure (smiles),measurement,setting,value
"CCOCc1nc2c(N)nc3ccccc3c2n1CC(C)(C)O [R848, resiquimod]",XX embryos (female embryos) among blastocyst embryos,bovine sperm [1],91%
same,Y-sperm among the sperm in the lower layer,bovine sperm [2],84%
same,Female ratio,pig sperm,64%
same,Female (number of individuals),pig sperm; 36 individuals,23
same,Male (number of individuals),pig sperm; 36 individuals,13
same,Female (number of embryos),mouse sperm [3]; [6],17
same,Male (number of embryos),mouse sperm [3]; [6],5
same,Female ratio,"mouse sperm [3]; blastocyst embryos, Glu medium pH 7.8",77%
same,acrosome retention rate of the sperm in the upper layer,bovine sperm [4],70%
same,female embryos among blastocyst embryos,mouse sperm [5],83.3%
